# Assay results from patent US8513418B2, “Substituted bicyclic methyl amine derivatives as sphingosine-1 phosphate receptors modulators” (Allergan, Inc., priority 2011, dated 2013).
# Tested on: female C57BL6 mice
# Experiment: Lymphopenia assay in mice (in vivo blood lymphocyte depletion)
# Details: after 24 hours; after dosing; FIG. 1 legend
# Method: Test drugs are prepared in a solution containing 3% (w/v) 2-hydroxy propyl β-cyclodextrin (HPBCD) and 1% DMSO to a final concentration of 1 mg/ml, and subcutaneously injected to female C57BL6 mice (CHARLES RIVERS) weighing 20-25 g at the dose of 10 mg/Kg. Blood samples are obtained by puncturing the submandibular skin with a Goldenrod animal lancet at 5, 24, 48, 72, and 96 hrs post drug application. Blood is collected into microvettes (SARSTEDT) containing EDTA tripotassium salt. Lymphocytes in blood samples are counted using a HEMAVET Multispecies Hematology System, HEMAVET HV950FS (Drew Scientific Inc.). (Hale, J. et al Bioorg. & Med. Chem. Lett. 14 (2004) 3351).
# A lymphopenia assay in mice, as previously described, was employed to measure the in vivo blood lymphocyte depletion after dosing Compound 5 (FIG. 1). These S1P agonists (or modulators) are useful for S1P-related diseases, and exemplified by the lymphopenia in vivo response. In general, test compounds were prepared in a solution containing 3% (w/v) 2-hydroxy propyl β-cyclodextrin (HPBCD) and 1% DMSO to a final concentration of 1 mg/ml, and subcutaneously injected to female C57BL6 mice (CHARLES RIVERS) weighing 20-25 g at the dose of 10 mg/Kg or 2 mg/Kg. […] Lymphocytes in blood samples were counted using a HEMAVET Multispecies Hematology System, HEMAVET HV950FS (Drew Scientific Inc.).
row,Structure (SMILES),lymphocyte count
1,"O=P(O)(O)CCCNCc1ccc(CCCCCCCc2ccccc2)c2cccnc12 [Compound 5, [3-({[5-(7-phenylheptyl)quinolin-8-yl]methyl}amino)propyl]phosphonic acid]",lowered lymphocyte count

# Same assay, conditions: after 24 hours; subcutaneously injected, 10 mg/Kg or 2 mg/Kg; FIG. 1
row,Structure (SMILES),number of lymphocytes
1,"O=P(O)(O)CCCNCc1ccc(CCCCCCCc2ccccc2)c2cccnc12 [Compound 5, [3-({[5-(7-phenylheptyl)quinolin-8-yl]methyl}amino)propyl]phosphonic acid]",< 1 10^3/μL blood

# Target: T1, human S1P1 receptor (Homo sapiens, UniProt P21453)
# T1 construct: expressed in transfected cells; membranes of cells stably expressing the receptor
# Experiment: GTP γ35S binding assay for S1P1 activity
# Format: biochemical
# Details: membranes of cells stably expressing the S1P1 receptor
# Method: Novel compounds were synthesized and tested for S1P1 activity using the GTP γ^35S binding assay. These compounds may be assessed for their ability to activate or block activation of the human S1P1 receptor in cells stably expressing the S1P1 receptor. GTP γ^35S binding was measured in the medium containing (mM) HEPES 25, pH 7.4, MgCl2 10, NaCl 100, dithitothreitol 0.5, digitonin 0.003%, 0.2 nM GTP γ^35S, and 5 μg membrane protein in a volume of 150 μl. Test compounds were included in the concentration range from 0.08 to 5,000 nM unless indicated otherwise. Membranes were incubated with 100 μM 5′-adenylylimmidodiphosphate for 30 min, and subsequently with 10 μM GDP for 10 min on ice. Drug solutions and membrane were mixed, and then reactions were initiated by adding GTP γ^35S and continued for 30 min at 25° C. Reaction mixtures were filtered over Whatman GF/B filters under vacuum, and washed three times with 3 mL of ice-cold buffer (HEPES 25, pH7.4, MgCl2 10 and NaCl 100). Filters were dried and mixed with scintillant, and counted for ^35S activity using a 8-counter. Agonist-induced GTP γ^35S binding was obtained by subtracting that in the absence of agonist. Binding data were analyzed using a non-linear regression method. In case of antagonist assay, the reaction mixture contained 10 nM […] in the presence of test antagonist at concentrations ranging from 0.08 to 5000 nM.
# Activity potency: S1P1 receptor from GTP γ^35S: nM, (EC50).
# T1 sequence (P21453 whole entry): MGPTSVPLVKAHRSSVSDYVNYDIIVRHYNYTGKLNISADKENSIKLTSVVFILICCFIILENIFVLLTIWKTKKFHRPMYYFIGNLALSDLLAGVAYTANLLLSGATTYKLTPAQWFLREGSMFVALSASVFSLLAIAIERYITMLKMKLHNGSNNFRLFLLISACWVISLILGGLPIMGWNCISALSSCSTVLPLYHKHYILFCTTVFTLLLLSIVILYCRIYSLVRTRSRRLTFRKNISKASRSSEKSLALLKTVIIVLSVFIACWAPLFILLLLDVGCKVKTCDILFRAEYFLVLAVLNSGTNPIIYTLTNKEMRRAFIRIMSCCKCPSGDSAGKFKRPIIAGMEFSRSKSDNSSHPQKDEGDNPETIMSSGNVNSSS
row,Structure (SMILES),EC50 [µM]
1,"O=P(O)(O)CCCNCc1ccc(C#CCCCCCc2ccccc2)c2cccnc12 [Compound 3, [3-({[5-(7-phenylhept-1-yn-1-yl)quinolin-8-yl]methyl}amino)propyl]phosphonic acid]",0.094
2,"O=P(O)(O)CCCNCc1ccc(C#CCCCCc2ccccc2)c2cccnc12 [Compound 4, [3-({[5-(6-phenylhex-1-yn-1-yl)quinolin-8-yl]methyl}amino)propyl]phosphonic acid]",0.204
3,"O=P(O)(O)CCCNCc1ccc(CCCCCCCc2ccccc2)c2cccnc12 [Compound 5, [3-({[5-(7-phenylheptyl)quinolin-8-yl]methyl}amino)propyl]phosphonic acid]",0.173
4,"O=P(O)(O)CCCNCc1ccc(C#CCCCc2ccccc2)c2cccnc12 [Compound 8, [3-({[5-(5-phenylpent-1-yn-1-yl)quinolin-8-yl]methyl}amino)propyl]phosphonic acid]",0.543
5,"COc1cccc(CCCCC#Cc2ccc(CNCCCP(=O)(O)O)c3ncccc23)c1 [Compound 12, {3-[({5-[6-(3-methoxyphenyl)hex-1-yn-1-yl]quinolin-8-yl}methyl)amino]propyl}phosphonic acid]",0.0183
6,"COc1cccc(CCCCCCc2ccc(CNCCCP(=O)(O)O)c3ncccc23)c1 [Compound 13, {3-[({5-[6-(3-methoxyphenyl)hexyl]quinolin-8-yl}methyl)amino]propyl}phosphonic acid]",0.00768
7,"CCCCCCCC/C=C/c1ccc(CNCCCP(=O)(O)O)c2ccccc12 [Compound 15, {3-[({4-[(1E)-dec-1-en-1-yl]-1-naphthyl}methyl)amino]propyl}phosphonic acid]",0.138
8,"O=P(O)(O)OCCNCc1ccc(CCCCCCc2ccccc2)c2ccccc12 [Compound 18, 2-({[4-(6-phenylhexyl)-1-naphthyl]methyl}amino)ethyl dihydrogen phosphate]",0.0555
9,"O=P(O)(O)CCCNCc1ccc(CCCCCCc2ccccc2)c2ccccc12 [Compound 19, [3-({[4-(6-phenylhexyl)-1-naphthyl]methyl}amino)propyl]phosphonic acid]",0.00559

# The next lines start with the values.
row,EC50 [µM],Structure (SMILES)
1,0.00153,"CCCCCCCCCCc1ccc(CNCCCP(=O)(O)O)c2ncccc12 [Compound 1, (3-{[(5-decylquinolin-8-yl)methyl]amino}propyl)phosphonic acid]"
2,0.00339,"CCCCCCCCC#Cc1ccc(CNCCCP(=O)(O)O)c2ncccc12 [Compound 2, (3-{[(5-dec-1-yn-1-ylquinolin-8-yl)methyl]amino}propyl)phosphonic acid]"
3,0.00545,"O=P(O)(O)CCCNCc1ccc(CCCCCCc2ccccc2)c2cccnc12 [Compound 7, [3-({[5-(6-phenylhexyl)quinolin-8-yl]methyl}amino)propyl]phosphonic acid]"
4,0.00219,"O=P(O)(O)OCCNCc1ccc(CCCCCCc2ccccc2)c2cccnc12 [Compound 11, 2-({[5-(6-phenylhexyl)quinolin-8-yl]methyl}amino)ethyl dihydrogen phosphate]"
5,0.00488,"O=P(O)(O)CCCNCc1ccc(C#CCCCCc2ccccc2)c2ccccc12 [Compound 16, [3-({[4-(6-phenylhex-1-yn-1-yl)-1-naphthyl]methyl}amino)propyl]phosphonic acid]"
